# Source: US20140357718A1 (priority 2013, published 2014)
# Like-named read-outs stand apart in the source and are kept apart here.
# Key:
# Assay type in all cases: cell-based
# Campylobacter jejuni = test: Bacterial growth in pure culture with test composition (SYBR Green fluorescence); details: C. jejuni, 19 h, 40° C., anaerobic
# Lactobacillus crispatus = test: Bacterial growth in pure culture with test composition (turbidity 660 nm); details: L. crispatus, 23 h, 40° C., anaerobic
# Escherichia coli = test: as above; details: E. coli, 9 h, 40° C., anaerobic
# Clostridium perfringens = details: C. perfringens, 23 h, 40° C., anaerobic
# [1] = free pH, 0.01% (w/v) composition
# [2] = free pH, 0.1% (w/v) composition
# [3] = free pH, 0.3% (w/v) composition
# [4] = pH 6.5 (neutralised with NaOH), 0.01% (w/v) composition
# [5] = pH 6.5 (neutralised with NaOH), 0.1% (w/v) composition
# [6] = pH 6.5 (neutralised with NaOH), 0.3% (w/v) composition
smiles,measurement,setting,value
"O=CO [Composition C, formic acid]",Growth of Indicator Bacteria (% of Growth Control),Campylobacter jejuni; [1],170%
same,Growth of Indicator Bacteria (% of Growth Control),Campylobacter jejuni; [2],20%
same,Growth of Indicator Bacteria (% of Growth Control),Campylobacter jejuni; [3],10%
same,Growth of Indicator Bacteria (% of Growth Control),Campylobacter jejuni; [4],170%
same,Growth of Indicator Bacteria (% of Growth Control),Campylobacter jejuni; [5],115%
same,Growth of Indicator Bacteria (% of Growth Control),Campylobacter jejuni; [6],65%
same,Growth of Indicator Bacteria (% of Growth Control),Lactobacillus crispatus; [1],95%
same,Growth of Indicator Bacteria (% of Growth Control),Lactobacillus crispatus; [2],90%
same,Growth of Indicator Bacteria (% of Growth Control),Lactobacillus crispatus; [3],75%
same,Growth of Indicator Bacteria (% of Growth Control),Lactobacillus crispatus; [4],120%
same,Growth of Indicator Bacteria (% of Growth Control),Lactobacillus crispatus; [5],115%
same,Growth of Indicator Bacteria (% of Growth Control),Lactobacillus crispatus; [6],95%
same,Growth of Indicator Bacteria (% of Growth Control),Escherichia coli; [1],80%
same,Growth of Indicator Bacteria (% of Growth Control),Escherichia coli; [2],20%
same,Growth of Indicator Bacteria (% of Growth Control),Escherichia coli; [3],15%
same,Growth of Indicator Bacteria (% of Growth Control),Escherichia coli; [4],110%
same,Growth of Indicator Bacteria (% of Growth Control),Escherichia coli; [6],45%
same,Growth of Indicator Bacteria (% of Growth Control),Clostridium perfringens; [1],75%
same,Growth of Indicator Bacteria (% of Growth Control),Clostridium perfringens; [2],20%
same,Growth of Indicator Bacteria (% of Growth Control),Clostridium perfringens; [3],15%
same,Growth of Indicator Bacteria (% of Growth Control),Clostridium perfringens; [4],100%
same,Growth of Indicator Bacteria (% of Growth Control),Clostridium perfringens; [5],65%
same,Growth of Indicator Bacteria (% of Growth Control),Clostridium perfringens; [6],60%
